Counter-ions that a name gives are not always drawn.

This assay deals with GST tagged IRAK4 (Homo sapiens (Human), UniProt Q9NWZ3). Description: IRAK4 Kinase Assay (IMAP fluorescence polarization). The settings on record: 0.5 nM GST tagged IRAK4, 100 μM ATP, 30 minutes at 25° C. The class given is biochemical. On the procedure: The kinase activity of IRAK4 is determined by its ability to catalyze the phosphorylation of a fluorescent polypeptide substrate. The extent of phosphorylation is measured using the IMAP technology (Molecular Devices) where the phosphorylated fluorescent substrate binds to the large M(III)-based nanoparticles which reduces the rotational speed of the substrate and thus increases its fluorescent polarization (FP).
GST tagged IRAK4, sequence (Q9NWZ3 whole entry): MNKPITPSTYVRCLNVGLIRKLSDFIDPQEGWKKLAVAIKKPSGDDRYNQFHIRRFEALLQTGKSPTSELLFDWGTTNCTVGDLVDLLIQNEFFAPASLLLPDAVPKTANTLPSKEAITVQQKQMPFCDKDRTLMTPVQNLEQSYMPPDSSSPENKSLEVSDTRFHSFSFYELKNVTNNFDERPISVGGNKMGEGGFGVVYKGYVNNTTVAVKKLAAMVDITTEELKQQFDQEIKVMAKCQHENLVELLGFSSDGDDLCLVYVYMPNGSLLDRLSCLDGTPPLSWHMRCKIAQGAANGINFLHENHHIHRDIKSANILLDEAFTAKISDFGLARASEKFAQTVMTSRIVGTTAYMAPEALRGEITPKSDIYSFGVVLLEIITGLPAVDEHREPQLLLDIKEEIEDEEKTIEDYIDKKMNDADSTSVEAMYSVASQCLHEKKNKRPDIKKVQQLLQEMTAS
20 μL reaction mixture contains 10 mM TriHCl, pH 7.2, 0.5 nM GST tagged IRAK4 (SignalChem), 100 nM fluorescent peptide substrate (RP7030, Molecular Devices), 100 μM ATP, 1 mM DDT, 1 mM MgCl2, and 0.01% Tween 20. The reaction is initiated by the addition of ATP. After incubation for 30 minutes at 25° C., 60 μL of Progressive IMAP Reagent (Molecular Devices) is added to stop the reaction. Change in RP7030's FP is determined by a FP reader (Analyst HT, LJL BioSystems).
A general note: In fluorescence polarisation assays a small probe gives low polarisation when free and higher when bound to something large.
Take `Cn1cc(NC(=O)c2ccc3cnc(N[C@@H]4CCCC(F)(F)[C@@H]4N)nn23)c(Cl)n1` [Example 79, 2-{[(1R,2R)-2-amino-3,3-difluorocyclohexyl]amino}-N-(3-chloro-1-methyl-1H-pyrazol-4-yl)pyrrolo[2,1-f][1,2,4]triazine-7-carboxamide trifluoroacetate]: the IC50 came to 229 nM.
Molecule `Cn1cc(NC(=O)c2ccc3cnc(N4C[C@H]5CC[C@@H]4CN5)nn23)c(C#N)n1` (single isomer, unassigned) [Example 47, N-(3-cyano-1-methyl-1H-pyrazol-4-yl)-2-[(1S,4S)- or (1R,4R)-2,5-diazabicyclo[2.2.2]oct-2-yl]pyrrolo[2,1-f][1,2,4]triazine-7-carboxamide trifluoroacetate] yielded an IC50 of 265 nM.
`Cn1cc(NC(=O)c2ccc3cnc(N[C@H]4CC(F)(F)CC[C@H]4N)nn23)c(C(F)(F)F)n1` (single isomer, unassigned) [Example 127, 2-{[(1S,2R)- or (1R,2S)-2-amino-5,5-difluorocyclohexyl]amino}-N-[1-methyl-3-(trifluoromethyl)-1H-pyrazol-4-yl]pyrrolo[2,1-f][1,2,4]triazine-7-carboxamide trifluoroacetate] showed an IC50 of 17 nM.
For `Cn1cc(NC(=O)c2ccc3cnc(N4CC5CCC(C4)N5)nn23)c(C(F)(F)F)n1` [Example 82, 2-(3,8-diazabicyclo[3.2.1]oct-3-yl)-N-[1-methyl-3-(trifluoromethyl)-1H-pyrazol-4-yl]pyrrolo[2,1-f][1,2,4]triazine-7-carboxamide trifluoroacetate], inhibition was half-maximal at 32 nM (IC50).
The molecule `Cn1cc(NC(=O)c2ccc3cnc(N4C5CCC4CNC5)nn23)c(C#N)n1` [Example 111, N-(3-cyano-1-methyl-1H-pyrazol-4-yl)-2-(3,8-diazabicyclo[3.2.1]oct-8-yl)pyrrolo[2,1-f][1,2,4]triazine-7-carboxamide trifluoroacetate] had an IC50 of 12 nM.
In the case of `N#Cc1ccccc1NC(=O)c1ccc2cnc(N3CCNCC3)nn12` [Example 58, N-(2-cyanophenyl)-2-piperazin-1-ylpyrrolo[2,1-f][1,2,4]triazine-7-carboxamide trifluoroacetate], the IC50 turned out to be 1910 nM.
The molecule `O=C(Nc1cscc1Br)c1ccc2cnc(N3CCCNCC3)nn12` [Example 23, N-(4-bromothiophen-3-yl)-2-(1,4-diazepan-1-yl)pyrrolo[2,1-f][1,2,4]triazine-7-carboxamide trifluoroacetate] registered an IC50 of 1680 nM.
For `N[C@@H]1[C@H](Nc2ncc3ccc(C(=O)Nc4ccccc4Br)n3n2)CCCC1(F)F` [Example 106, 2-{[(1R,2R)-2-amino-3,3-difluorocyclohexyl]amino}-N-(2-bromophenyl)pyrrolo[2,1-f][1,2,4]triazine-7-carboxamide trifluoroacetate], the IC50 was 5810 nM.
Molecule `Cn1cc(NC(=O)c2ccc3cnc(N4C[C@@H]5CN[C@@H](C5)C4)nn23)c(C#N)n1` (single isomer, unassigned) [Example 113, N-(3-cyano-1-methyl-1H-pyrazol-4-yl)-2-[(1S,5S)- or (1R,5R)-3,6-diazabicyclo[3.2.1]oct-3-yl]pyrrolo[2,1-f][1,2,4]triazine-7-carboxamide] returned an IC50 of 85 nM.
For `N[C@H]1CCCC[C@H]1Nc1ncc2ccc(C(=O)Nc3cscc3Cl)n2n1` [Example 109, 2-{[(1R,2S)-2-aminocyclohexyl]amino}-N-(4-chlorothiophen-3-yl)pyrrolo[2,1-f][1,2,4]triazine-7-carboxamide trifluoroacetate], it took 2 nM to reach half-maximal inhibition (IC50).
`Cn1cc(NC(=O)c2ccc3cnc(N4C[C@H]5CN[C@H](C5)C4)nn23)c(C#N)n1` (single isomer, unassigned) [Example 114, N-(3-cyano-1-methyl-1H-pyrazol-4-yl)-2-[(1S,5S)- or (1R,5R)-3,6-diazabicyclo[3.2.1]oct-3-yl]pyrrolo[2,1-f][1,2,4]triazine-7-carboxamide] came in with an IC50 of 390 nM.
`Cn1cc(NC(=O)c2ccc3cnc(N4C[C@H](N)C[C@H](F)C4)nn23)c(C(F)F)n1` [Example 163, 2-[(3R,5S)-3-amino-5-fluoropiperidin-1-yl]-N-[3-(difluoromethyl)-1-methyl-1H-pyrazol-4-yl]pyrrolo[2,1-f][1,2,4]triazine-7-carboxamide trifluoroacetate]: the IC50 was 0.7 nM.
On to `Cn1cc(NC(=O)c2ccc3cnc(N4C[C@H](N)C[C@@H](F)C4)nn23)c(C(F)F)n1` [Example 156, 2-[(3R,5R)-3-amino-5-fluoropiperidin-1-yl]-N-[3-(difluoromethyl)-1-methyl-1H-pyrazol-4-yl]pyrrolo[2,1-f][1,2,4]triazine-7-carboxamide trifluoroacetate], for which half-maximal inhibition (IC50) was put at 0.5 nM.
Regarding `Cn1cc(NC(=O)c2ccc3cnc(N4C[C@@H]5CNC[C@H]4C5)nn23)c(C(F)F)n1` (single isomer, unassigned) [Example 119, 2-[(1S,5R)- or (1R,5S)-3,6-diazabicyclo[3.2.1]oct-6-yl]-N-[3-(difluoromethyl)-1-methyl-1H-pyrazol-4-yl]pyrrolo[2,1-f][1,2,4]triazine-7-carboxamide], the IC50 is 2 nM.
As to `Cn1cc(NC(=O)c2ccc3cnc(N[C@@H]4CNC[C@@H](F)C4)nn23)c(C(F)(F)F)n1` [Example 161, 2-{[(3S,5S)-5-fluoropiperidin-3-yl]amino}-N-[1-methyl-3-(trifluoromethyl)-1H-pyrazol-4-yl]pyrrolo[2,1-f][1,2,4]triazine-7-carboxamide trifluoroacetate], the IC50 came out at 4 nM.
With `N[C@H]1CCCC[C@H]1Nc1ncc2ccc(C(=O)Nc3ccccc3Br)n2n1` [Example 32, 2-{[(1R,2S)-2-aminocyclohexyl]amino}-N-(2-bromophenyl)pyrrolo[2,1-f][1,2,4]triazine-7-carboxamide trifluoroacetate], 11 nM corresponded to half-maximal inhibition (IC50).
Then `Cn1cc(NC(=O)c2ccc3cnc(N4C[C@H]5CC[C@@H]4CN5)nn23)c(Br)n1` (single isomer, unassigned) [Example 64, N-(3-bromo-1-methyl-1H-pyrazol-4-yl)-2-[(1S,4S)- or (1R,4R)-2,5-diazabicyclo[2.2.2]oct-2-yl]pyrrolo[2,1-f][1,2,4]triazine-7-carboxamide trifluoroacetate], with 122 nM; and `O=C(Nc1ccccc1C(F)F)c1ccc2cnc(N3CCCNCC3)nn12` [Example 57, 2-(1,4-diazepan-1-yl)-N-[2-(difluoromethyl)phenyl]-pyrrolo[2,1-f][1,2,4]triazine-7-carboxamide trifluoroacetate], with 6560 nM; and `Cn1cc(NC(=O)c2ccc3cnc(NC4CCCCNC4)nn23)c(C(F)(F)F)n1` (centres unmarked) [Example 10, 2-(azepan-3-ylamino)-N-[1-methyl-3-(trifluoromethyl)-1H-pyrazol-4-yl]pyrrolo[2,1-f][1,2,4]triazine-7-carboxamide trifluoroacetate], with 4 nM.
Under `Cn1cc(NC(=O)c2ccc3cnc(N4CCNCC5(CC5)C4)nn23)c(C(F)(F)F)n1` [Example 9, 2-(5,8-diazaspiro[2.6]non-5-yl)-N-[1-methyl-3-(trifluoromethyl)-1H-pyrazol-4-yl]pyrrolo[2,1-f][1,2,4]triazine-7-carboxamide trifluoroacetate] stands 7 nM; under `Cn1cc(NC(=O)c2ccc3cnc(N4C[C@H]5CNC[C@@H]4C5)nn23)c(C(F)F)n1` (single isomer, unassigned) [Example 120, 2-[(1S,5R)- or (1R,5S)-3,6-diazabicyclo[3.2.1]oct-6-yl]-N-[3-(difluoromethyl)-1-methyl-1H-pyrazol-4-yl]pyrrolo[2,1-f][1,2,4]triazine-7-carboxamide], 15 nM; under `Cn1cc(NC(=O)c2ccc3cnc(N[C@@H]4CCCC[C@@H]4N)nn23)c(Br)n1` [Example 66, 2-{[(1R,2S)-2-aminocyclohexyl]amino}-N-(3-bromo-1-methyl-1H-pyrazol-4-yl)pyrrolo[2,1-f][1,2,4]triazine-7-carboxamide trifluoroacetate], 1 nM.
The molecule `N#Cc1ccccc1NC(=O)c1ccc2cnc(N[C@H]3CCCCNC3)nn12` (single isomer, unassigned) [Example 60, 2-[(3S)- or (3R)-azepan-3-ylamino]-N-(2-cyanophenyl)pyrrolo[2,1-f][1,2,4]triazine-7-carboxamide trifluoroacetate] showed an IC50 of 8 nM.
Consider `Cn1cc(NC(=O)c2ccc3cnc(N[C@@H]4CCCC(F)(F)[C@@H]4N)nn23)c(Br)n1` [Example 89, 2-{[(1R,2R)-2-amino-3,3-difluorocyclohexyl]amino}-N-(3-bromo-1-methyl-1H-pyrazol-4-yl)pyrrolo[2,1-f][1,2,4]triazine-7-carboxamide trifluoroacetate], for which the IC50 was determined as 373 nM.
Turning to `Cn1cc(NC(=O)c2ccc3cnc(N[C@@H]4CCCC(F)(F)[C@@H]4N)nn23)c(C(F)F)n1` [Example 92, 2-{[(1R,2R)-2-amino-3,3-difluorocyclohexyl]amino}-N-[3-(difluoromethyl)-1-methyl-1H-pyrazol-4-yl]pyrrolo[2,1-f][1,2,4]triazine-7-carboxamide trifluoroacetate], 46 nM corresponded to half-maximal inhibition (IC50).
Regarding `O=C(Nc1ccsc1Cl)c1ccc2cnc(N3C[C@@H]4CC[C@H]3CN4)nn12` (single isomer, unassigned) [Example 53, N-(2-chlorothiophen-3-yl)-2-[(1S,4S)- or (1R,4R)-2,5-diazabicyclo[2.2.2]oct-2-yl]pyrrolo[2,1-f][1,2,4]triazine-7-carboxamide trifluoroacetate], the IC50 stood at 1640 nM.

As a reminder, the IC50 is the concentration at which inhibition is half-maximal.

For the origin of these results see patent publication US10329295B2, “Pyrrolotriazine inhibitors of IRAK4 activity” (MERCK SHARP & DOHME CORP., priority 2015, dated 2019).
